In patent EP2087894B1, “FORMULATIONS COMPRISING PICEID ABLE TO PREVENT AND INHIBIT LIPID PEROXIDATION” (Glures S.R.L., priority 2008, dated 2009):

What was measured:
[1] = Spin labelling (EPR) with n-SASL to find the position in the membrane; assay type: physicochemical; details: for position of the reactive hydroxyl group in the bilayer: EPR, DPPC liposomes; for location of the molecule in the bilayer: EPR spectra of n-SASL (positions 5, 7, 10, 12, 16) in DPPC liposomes
Procedure: (§1) As the antioxidant efficacy of both products is related to their partitioning between the water and lipid phase and to their position in the membrane bilayer, an investigation was carried out on the interactions of resveratrol and piceid in multilamellar liposomes of saturated L-alpha-phosphatidylcholine (PC) of various chain lengths (dimyristoyl, DMPC; dipalmitoyl, DPPC; distearoyl, DSPC) to determine: a) partition coefficients of the stilbenes between liposomes and water; b) modification of lipid bilayer organization; c) their position in the membrane using differential calorimetric analysis (DSC) and spin labelling (EPR).

[2] = Inhibition of linoleic acid peroxidation, followed by oxygen consumption after thermal initiation by ABIP; assay type: biochemical; details: 37 °C; for decrease in oxygen consumption (inhibition of lipid peroxidation): radical reaction thermally initiated by ABIP, after addition of antioxidant
Procedure: The effect of the antioxidants on lipid peroxidation was verified by measuring the quantity of oxygen consumed at 37 °C as a consequence of the radical reaction thermally initiated by ABIP.

[3] = Reaction with free radicals and radical initiators before they activate lipid peroxidation; assay type: biochemical
Text: (§2) With DHHP, the radical neutralizing activity was instead followed spectrophotometrically by measuring the initial rate (Vo) of the disappearance of its characteristic band at 515 nm. […] It was also required to verify whether the two products examined are able to react with the free radical initiators before the latter activate lipid peroxidation in the membrane.

[4] = Free radical neutralization followed spectrophotometrically (disappearance of the band at 515 nm); assay type: biochemical; details: radical neutralizing activity, spectrophotometric
Text: as §2

[5] = Differential calorimetric analysis (DSC) of the gel-to-fluid transition of liposomes; assay type: physicochemical; details: DMPC, DPPC, DSPC multilamellar liposomes at increasing stilbene concentrations
Procedure: as §1

[6] = Partition coefficients of the stilbenes between liposomes and water; assay type: physicochemical; details: for partitioning between water and lipid phase: liposomes / water
Procedure: as §1

Structure (SMILES) | position of the reactive hydroxyl group in the bilayer [1] | decrease in oxygen consumption (inhibition of lipid peroxidation) [2] | location of the molecule in the bilayer [1] | duration of the inhibitory effect on oxygen consumption ([2]; ABIP-initiated, compared with vitamin E and BHT) | reactivity with the free radicals and radical initiators under examination ([3]; in water, before initiators activate lipid peroxidation in the membrane) | effectiveness (quantitative evaluations) ([3]; piceid compared with resveratrol) | initial rate (Vo) of the disappearance of its characteristic band at 515 nm [4] | DSC profiles of the gel-to-fluid state transition [5] | hydrophobicity from partition coefficient measurements ([6]; between liposomes and water) | partitioning between water and lipid phase [6]
Cc1cc(C(C)(C)C)c(O)c(C(C)(C)C)c1 [BHT, 2,6-di-tert-butyl-4-methyl-phenol, reference compound] | located more deeply | brief initial period of strong inhibition |  |  |  |  |  |  |  | 
OC[C@H]1O[C@@H](Oc2cc(O)cc(/C=C/c3ccc(O)cc3)c2)[C@H](O)[C@@H](O)[C@@H]1O [piceid] | very close to the two double bonds of the polyunsaturated fatty acids (PUFA) | steady decrease in oxygen consumption greater than that of vitamin E and BHT | located in the hydrophobic region of the bilayer although piceid is closer to the hydrophilic region | more prolonged effect over time | react with all the free radicals and radical initiators under examination | more effective than resveratrol | comparable to those of BHT (although lower than those of vitamin E) | broadened and shifted towards lower temperatures | less hydrophobic than resveratrol | sufficiently lipophilic to partition themselves almost exclusively in the lipid phase
Oc1ccc(C=Cc2cc(O)cc(O)c2)cc1 [resveratrol] | very close to the two double bonds of the polyunsaturated fatty acids (PUFA) |  | located in the hydrophobic region of the bilayer |  |  |  |  | broadened and shifted towards lower temperatures |  | sufficiently lipophilic to partition themselves almost exclusively in the lipid phase
Cc1c(C)c2c(c(C)c1O)CC[C@@](C)(CCC[C@H](C)CCC[C@H](C)CCCC(C)C)O2 [vitamin E, alpha-tocopherol, reference compound] | more displaced towards the polar surface | brief initial period of strong inhibition |  |  |  |  |  |  |  | 
